Here are results for one compound from US20120124703A1, “NOVEL COPRINUS COMATUS AND TREMELLA MESENTERICA MUSHROOM STRAINS, PRODUCTS AND EXTRACTS THEREOF AND COMPOSITIONS COMPRISING THEM” (PALMED TEVA LTD, priority 2009, published 2012).

Assay [1] in a line: Antioxidant activity, β-carotene bleaching method. The format is biochemical. The method, then:
β-Carotene Bleaching Method. The antioxidant activity of C. comatus extracts was determined according to the β-carotene bleaching method. A reagent mixture containing 1 ml of (3-carotene (Sigma) solution (0.2 mg/ml in chloroform), 0.02 ml of linoleic acid (Sigma), and 0.2 ml of Tween 80 (Sigma) was evaporated to dryness under a nitrogen stream. Fifty milliliters of oxygenated distilled water and 0.2 ml of mushroom crude extracts (either ethanol or culture liquid) with different concentrations (2-8 mg/ml) were added. Pure methanol or water (0.2 ml) was used as the control, and the blank contained all the earlier chemicals except β-carotene. All these mixtures were then shaken to form a liposome solution and then incubated at 50° C. for 2 h. The absorbance of an aliquot (1 ml) of these liposome solutions at 470 nm was monitored by a spectrophotometer at time intervals of 20 min. Butylated hydroxyanisole (BHA) (Sigma) (2 mg/ml in methanol) was used as the standard. […] The bleaching rate (R) of 13-carotene was calculated according to
where: ln—natural log, a—absorbance at time 0, b—absorbance at time t, and t—incubation interval 20, 40, 60, 80, 100, or 120 min.
The antioxidant activity (AOA) was calculated, in terms of percent inhibition relative to the control, using Equation (2) […]

The nature of assay [2]: Scavenging activity on DPPH radicals. It is filed as biochemical. The following applies: standard BHA 1 mg/ml. The protocol: Scavenging Activity on 1,1-diphenyl-2-picrylhydrazyl. The scavenging activity of extracts from C. comatus was measured on 1,1-diphenyl-2-picrylhydrazyl (DPPH) radicals. An aliquot of 0.5 ml of 0.1 mM DPPH radical (Sigma) in methanol was added to a test tube with 1 mL of mushroom ethanol or water extract of different concentrations (0.5 to 9 mg/mL). Methanol or water was used instead of the mushroom sample as a control. The reaction mixture was vortex-mixed at room temperature and the absorbance was determined immediately after mixing by measuring at 520 nm with a spectrophotometer. Inhibition of free radicals by DPPH was calculated as follows: I (%)=(Ablank−Asample/Ablank)×100, where I is inhibition (%), Ablank is the absorbance of the control reaction (containing all reagents except the test compound), and Asample is the absorbance of the test compound. The extract concentration providing 50% inhibition (EC50) was calculated from the graph of scavenging activity of radical percentage against extract concentration. Butylated hydroxyanisole (BHA) in concentration of 1 mg/ml methanol was used as the standard. Each value is expressed as mean±standard deviation (n=3).
Free-radical scavenging is one of the known mechanisms by which antioxidants inhibit lipid oxidation. […] The decrease in absorbance is taken as a measure of the extent of radical-scavenging.
A general note: The DPPH test is a chemical assay of radical scavenging.

Consider `COc1ccc(O)c(C(C)(C)C)c1` [BHA, Butylated hydroxyanisole], for which, in assay [1] (extract concentration 2.0 mg/mL, BHA 2 mg/mL in methanol), the “Antioxidant activity (%) of water extracts” value is recorded as 98.2%. Also, the “Antioxidant activity (%) of ethanol extracts” value in assay [1] (extract concentration 2.0 mg/ml, BHA 2 mg/ml in methanol) came to 98.2%. Moreover, in assay [2], the “Scavenging ability (% of inhibition)” value came to 92.0%.
